Source: US12213970B2, “Pyridinyl sulfonamide derivatives, pharmaceutical compositions and uses thereof” (Boehringer Ingelheim International GmbH, priority 2018, dated 2025)

Tests used:
AOC2 = molecular target: T1, AOC2 (Homo sapiens, UniProt O75106); experiment: AOC2 biochemical assay (Amplex Red); conditions: read-out: AOC2 IC50
T1 construct: host or cells: HEK293 cells (transient transfection), cell homogenate
T1 sequence (O75106 1-756): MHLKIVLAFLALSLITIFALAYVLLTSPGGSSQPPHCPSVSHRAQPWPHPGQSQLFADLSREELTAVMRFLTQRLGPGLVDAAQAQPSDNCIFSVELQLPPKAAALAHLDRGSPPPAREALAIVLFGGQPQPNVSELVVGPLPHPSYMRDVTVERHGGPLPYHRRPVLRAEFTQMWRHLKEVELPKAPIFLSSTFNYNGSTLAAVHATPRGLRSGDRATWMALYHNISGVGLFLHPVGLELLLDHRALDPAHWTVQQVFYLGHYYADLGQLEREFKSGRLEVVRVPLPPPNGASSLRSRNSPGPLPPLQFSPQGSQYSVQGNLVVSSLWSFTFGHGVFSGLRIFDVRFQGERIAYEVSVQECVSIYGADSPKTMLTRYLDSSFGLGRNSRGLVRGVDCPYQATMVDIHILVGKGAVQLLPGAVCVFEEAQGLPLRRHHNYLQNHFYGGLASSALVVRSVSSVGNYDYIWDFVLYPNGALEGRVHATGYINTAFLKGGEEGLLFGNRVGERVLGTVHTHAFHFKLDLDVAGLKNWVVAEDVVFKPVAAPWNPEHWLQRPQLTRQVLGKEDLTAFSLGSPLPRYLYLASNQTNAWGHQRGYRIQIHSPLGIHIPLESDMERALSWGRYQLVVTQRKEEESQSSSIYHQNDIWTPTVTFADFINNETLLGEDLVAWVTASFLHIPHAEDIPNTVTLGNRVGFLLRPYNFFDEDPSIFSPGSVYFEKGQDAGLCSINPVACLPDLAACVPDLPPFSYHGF
Description: The Amplex® Red Assay (commercially available from Thermo Fisher Scientific) provides a sensitive method for the detection of H2O2 generated during enzymatic reactions like the amine oxidation catalyzed by AOC2. […] An aliquot of 5 μL of the compound dilution is added to a 96 well plate (flat bottom F, black, GREINER bio-one, #655900) in a DMSO concentration of 2%. […] Cells are cultured for 3 days in EMEM culture medium containing 10% FCS (#04-00-1A, Biological Industries). After washing twice with ice cold PBS, cells are lysed by mechanic homogenation and cleared supernatants are shock frozen in liquid nitrogen and stored at -80° C. For the determination of AOC2 enzymatic activity cell lysates are thawed on ice and 1:1 diluted with reaction buffer. An Aliquot of 45 μL is added to the compound dilution and incubated for 30 min at 37° C. The enzymatic reaction is started with the addition of 50 μL of Amplex® Red reaction mix (final assay concentration: 100 mM sodiumphosphate, 120 μM Amplex® Red reagent (#A22177 Molecular Probes), 1.5 U/mL Horseradish Peroxidase (#P8375 Sigma-Aldrich), 2 mM phenylethylamine (#[…] Sigma-Aldrich), 0.05% Pluronic F-127 (#P3000MP Sigma-Aldrich), pH 7.4, 37° C.). The turnover per time of the substrate is determined directly with a fluorescence reader (Ex 540 nm/Em 590 nm) like Envision 2104 Multilabel Reader (PERKIN ELMER) for 60 min. (cf. Anal Biochem (1997) 253:169-174; Anal Biochem (1997) 253:162-168)

AOC1 = molecular target: T2, AOC1 (Homo sapiens, UniProt P19801); experiment: AOC1 biochemical assay (Amplex Red); conditions: read-out: AOC1 IC50
T2 construct: purchased R&D Systems 8297-AO-010
T2 sequence (P19801 20-751): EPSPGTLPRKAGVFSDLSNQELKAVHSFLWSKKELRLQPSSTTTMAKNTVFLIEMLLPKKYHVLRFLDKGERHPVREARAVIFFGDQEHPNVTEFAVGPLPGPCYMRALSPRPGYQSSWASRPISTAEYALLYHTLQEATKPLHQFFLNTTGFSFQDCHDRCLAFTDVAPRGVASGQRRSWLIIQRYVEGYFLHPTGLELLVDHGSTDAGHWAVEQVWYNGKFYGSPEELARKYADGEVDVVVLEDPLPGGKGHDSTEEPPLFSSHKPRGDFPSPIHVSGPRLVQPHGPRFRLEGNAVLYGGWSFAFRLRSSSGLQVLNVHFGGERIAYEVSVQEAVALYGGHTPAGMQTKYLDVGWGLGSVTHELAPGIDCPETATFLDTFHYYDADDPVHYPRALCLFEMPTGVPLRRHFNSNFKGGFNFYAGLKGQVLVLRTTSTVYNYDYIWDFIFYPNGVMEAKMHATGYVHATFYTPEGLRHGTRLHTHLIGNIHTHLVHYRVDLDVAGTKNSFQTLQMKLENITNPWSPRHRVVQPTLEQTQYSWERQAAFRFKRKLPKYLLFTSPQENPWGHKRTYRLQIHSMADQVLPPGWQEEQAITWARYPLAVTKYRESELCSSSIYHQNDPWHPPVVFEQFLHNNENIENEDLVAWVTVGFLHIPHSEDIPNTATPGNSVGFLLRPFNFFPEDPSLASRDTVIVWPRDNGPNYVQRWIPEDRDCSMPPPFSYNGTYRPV
Description: The Amplex® Red Assay (available from Thermo Fisher Scientific) provides a sensitive method for the detection of H2O2 generated during enzymatic reactions like the amine oxidation catalyzed by AOC1. The assay reagent is a colorless substrate (N-acetyl-3,7-dihydroxyphenoxazine) that reacts in a 1:1 stoichiometry with hydrogen peroxide (H2O2) to produce the fluorescent dye resorufin (7-hydroxyphenoxazin-3-one, excitation/emission maxima=570/585 nm).
An aliquot of 3 μL of the compound dilution is added to a 384 well plate (Optiplate, PS, flat bottom F, black, PERKIN ELMER, #6007270) in a DMSO concentration of 6.6%.
An AOC1 enzyme aliquot (#8297-AO-010, R&D Systems) is thawed on ice, diluted in reaction buffer and added in a volume of 7 μL to the wells to give a final assay concentration of 1 ng/well. After incubation of inhibitor and enzyme for 30 minutes at 37° C., the enzymatic reaction is started with the addition of 10 μL of Amplex® Red reaction mix (final assay concentration: 100 mM sodiumphosphate, 120 μM Amplex® Red reagent (#A22177 Molecular Probes), 1.5 U/mL Horseradish Peroxidase (#P8375 Sigma-Aldrich), 200 μM putrescine (#P7505 Sigma-Alrdich), 0.05% Pluronic F-127 (#P3000MP Sigma-Aldrich), pH 7.4, 37° C.).
After an incubation for 30 minutes at 37° C. the turnover of the substrate is determined directly (or after the addition of an excess of an amine-oxidase inhibitor) with a fluorescence reader (Ex 540 nm/Em 590 nm) like Envision 2104 Multilabel Reader (PERKIN ELMER).

Row | SMILES | IC50 (AOC2) | IC50 (AOC1)
1 | NC/C(=C/F)COc1ccc(S(=O)(=O)N2CC(C3CCN(C(=O)C4CC4)CC3)C2)cn1 [Example 26] | 63 nM | 911 nM
2 | CCNC(=O)CC1CCN(S(=O)(=O)c2ccc(OC/C(=C\F)CN)nc2)CC1 [Example 30] | 44 nM | 8900 nM
3 | CN(C)C(=O)[C@H]1CCN(S(=O)(=O)c2ccc(OC/C(=C\F)CN)nc2)C1 [Example 4] | 394 nM | 3420 nM
4 | CC1(C(=O)O)CCN(S(=O)(=O)c2ccc(OC/C(=C\F)CN)nc2)CC1 [Example 47] | 5 nM | > 50000 nM
